Reference: patent US9707233B2, “Heterocyclylamines as PI3K inhibitors” (Incyte Corporation, priority 2011, dated 2017)

These compounds were tested against PI3Kδ (p110δ/p85α) (Homo sapiens (Human), UniProt O00329) (assay: PI3Kδ scintillation proximity assay (Example A3)). Conditions: 20 μM ATP, 20 μM PIP2, 4 nM PI3Kδ; read-out: PI3Kδ SPA IC50.
PI3Kδ (p110δ/p85α), sequence (O00329 whole entry): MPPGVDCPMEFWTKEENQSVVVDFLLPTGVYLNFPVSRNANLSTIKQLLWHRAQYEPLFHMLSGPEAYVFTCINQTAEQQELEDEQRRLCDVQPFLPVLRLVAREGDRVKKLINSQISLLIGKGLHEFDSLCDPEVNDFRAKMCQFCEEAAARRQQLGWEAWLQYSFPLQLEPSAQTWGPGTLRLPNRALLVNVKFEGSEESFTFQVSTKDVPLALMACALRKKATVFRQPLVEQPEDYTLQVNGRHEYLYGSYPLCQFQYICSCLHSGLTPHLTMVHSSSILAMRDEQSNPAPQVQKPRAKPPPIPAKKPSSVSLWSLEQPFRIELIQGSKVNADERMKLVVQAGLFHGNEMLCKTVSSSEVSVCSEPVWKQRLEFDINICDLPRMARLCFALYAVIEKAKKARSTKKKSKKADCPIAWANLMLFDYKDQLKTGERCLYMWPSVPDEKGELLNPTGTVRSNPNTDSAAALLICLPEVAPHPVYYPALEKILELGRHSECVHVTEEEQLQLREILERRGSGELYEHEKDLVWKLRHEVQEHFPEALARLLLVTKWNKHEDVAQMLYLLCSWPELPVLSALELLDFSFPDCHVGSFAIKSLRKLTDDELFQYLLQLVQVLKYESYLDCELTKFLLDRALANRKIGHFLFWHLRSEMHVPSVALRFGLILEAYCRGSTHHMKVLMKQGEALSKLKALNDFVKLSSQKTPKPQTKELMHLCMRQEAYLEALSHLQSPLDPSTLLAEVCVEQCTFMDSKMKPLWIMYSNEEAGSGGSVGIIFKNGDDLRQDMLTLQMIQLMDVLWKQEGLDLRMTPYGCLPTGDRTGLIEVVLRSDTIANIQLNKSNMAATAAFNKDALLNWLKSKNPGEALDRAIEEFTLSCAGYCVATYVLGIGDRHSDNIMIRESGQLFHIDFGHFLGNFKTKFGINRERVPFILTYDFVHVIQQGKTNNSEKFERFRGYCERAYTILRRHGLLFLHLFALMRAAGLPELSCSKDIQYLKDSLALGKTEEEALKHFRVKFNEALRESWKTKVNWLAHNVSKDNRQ
PI3Kδ (p110δ/p85α), sequence (P27986 whole entry partner): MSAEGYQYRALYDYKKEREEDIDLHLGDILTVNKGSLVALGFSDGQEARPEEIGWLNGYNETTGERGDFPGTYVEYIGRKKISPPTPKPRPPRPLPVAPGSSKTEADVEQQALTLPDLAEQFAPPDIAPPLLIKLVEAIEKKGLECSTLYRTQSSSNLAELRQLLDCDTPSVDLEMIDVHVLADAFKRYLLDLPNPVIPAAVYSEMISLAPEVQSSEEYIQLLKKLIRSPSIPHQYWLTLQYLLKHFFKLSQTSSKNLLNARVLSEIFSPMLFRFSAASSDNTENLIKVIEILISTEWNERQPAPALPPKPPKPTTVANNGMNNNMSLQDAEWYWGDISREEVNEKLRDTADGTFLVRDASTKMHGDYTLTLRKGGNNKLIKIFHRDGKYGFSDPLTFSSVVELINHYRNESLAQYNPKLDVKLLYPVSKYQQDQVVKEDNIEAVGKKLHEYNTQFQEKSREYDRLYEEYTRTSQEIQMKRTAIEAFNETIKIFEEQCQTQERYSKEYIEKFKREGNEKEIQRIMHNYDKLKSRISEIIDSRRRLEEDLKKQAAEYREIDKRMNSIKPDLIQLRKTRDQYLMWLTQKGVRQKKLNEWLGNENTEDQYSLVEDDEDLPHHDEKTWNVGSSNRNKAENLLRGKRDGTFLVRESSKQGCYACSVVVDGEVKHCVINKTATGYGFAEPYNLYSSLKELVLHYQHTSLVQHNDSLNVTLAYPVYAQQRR
Type: biochemical
Method: [γ-^33P]ATP (10 mCi/mL) was purchased from Perkin-Elmer (Waltham, Mass.). […] PI3Kδ (p110δ/p85α) was purchased from Millipore (Bedford, Mass.). ATP, MgCl2, DTT, EDTA, MOPS and CHAPS were purchased from Sigma-Aldrich (St. Louis, Mo.). Wheat Germ Agglutinin (WGA) YSi SPA Scintillation Beads was purchased from GE healthcare life sciences (Piscataway, N.J.).
The kinase reaction was conducted in polystyrene 384-well matrix white plate from Thermo Fisher Scientific in a final volume of 25 μL. Inhibitors were first diluted serially in DMSO and added to the plate wells before the addition of other reaction components. The final concentration of DMSO in the assay was 0.5%. The PI3K assays were carried out at room temperature in 20 mM MOPS, pH 6.7, 10 mM MgCl2, 5 mM DTT and CHAPS 0.03%. Reactions were initiated by the addition of ATP, the final reaction mixture consisted of 20 μM PIP2, 20 μM ATP, 0.2 μCi [γ-^33P]ATP, 4 nM PI3Kδ. […] 25 mM EDTA, 400 μM ATP. The final concentration of SPA beads was 1.0 mg/mL. After the plate sealing, plates were shaken overnight at room temperature and centrifuged at 1800 rpm for 10 minutes, the radioactivity of the product was determined by scintillation counting on Topcount (Perkin-Elmer). IC50 determination was performed by fitting the curve of percent control activity versus the log of the inhibitor concentration using the GraphPad Prism 3.0 software.
COc1c(C(C)n2ncc3c(N)ncnc32)cc(Cl)c(C)c1-c1ccnc(C(=O)N(C)C)c1 (racemic) [Example 38, 4-{3-[1-(4-amino-1H-pyrazolo[3,4-d]pyrimidin-1-yl)ethyl]-5-chloro-2-methoxy-6-methylphenyl}-N,N-dimethylpyridine-2-carboxamide] was tested, and the IC50 was 10 to 50 nM. For COc1c(C(C)n2ncc3c(N)ncnc32)cc(Cl)c(C)c1-c1ccnc(C(=O)NCCO)c1 (racemic) [Example 39, 4-{3-[1-(4-amino-1H-pyrazolo[3,4-d]pyrimidin-1-yl)ethyl]-5-chloro-2-methoxy-6-methylphenyl}-N-(2-hydroxyethyl)pyridine-2-carboxamide], the IC50 was 50 to 200 nM. With COc1c(C(C)n2nc(C)c3c(N)ncnc32)cc(C#N)c(C)c1-c1ccnc(C(=O)N(C)CCO)c1 (racemic) [Example 40, 4-{3-[1-(4-amino-3-methyl-1H-pyrazolo[3,4-d]pyrimidin-1-yl)ethyl]-5-cyano-2-methoxy-6-methylphenyl}-N-(2-hydroxyethyl)-N-methylpyridine-2-carboxamide] the IC50 was 10 to 50 nM. In the case of COc1c(C(C)n2nc(C)c3c(N)nccc32)cc(Cl)c(C)c1-c1ccc(C(=O)N(C)C)nc1 (racemic) [Example 41, 5-{3-[1-(4-Amino-3-methyl-1H-pyrazolo[4,3-c]pyridin-1-yl)ethyl]-5-chloro-2-methoxy-6-methylphenyl}-N,N-dimethylpyridine-2-carboxamide bis(trifluoroacetate)], the IC50 is reported as 50 to 200 nM. For CCOc1c(C(C)n2nc(-c3cccc(F)c3)c3c(N)ncnc32)cc(Cl)c(C)c1-c1ccc(C(=O)N(C)C)nc1 (racemic) [Example 47, 5-(3-{1-[4-amino-3-(3-fluorophenyl)-1H-pyrazolo[3,4-d]pyrimidin-1-yl]ethyl}-5-chloro-2-ethoxy-6-methylphenyl)-N,N-dimethylpyridine-2-carboxamide bis(trifluoroacetate)], the IC50 was no more than 10 nM. Compound CCOc1c(C(C)n2nc(-c3cn[nH]c3)c3c(N)ncnc32)cc(Cl)c(C)c1-c1ccc(C(=O)N(C)C)nc1 (racemic) [Example 48, 5-(3-{1-[4-amino-3-(1H-pyrazol-4-yl)-1H-pyrazolo[3,4-d]pyrimidin-1-yl]ethyl}-5-chloro-2-ethoxy-6-methylphenyl)-N,N-dimethylpyridine-2-carboxamide bis(trifluoroacetate)] has an IC50 of no more than 10 nM. In the case of CCOc1c(C(C)n2nc(-c3cnn(C)c3)c3c(N)ncnc32)cc(Cl)c(C)c1-c1ccc(C(=O)N(C)C)nc1 (racemic) [Example 49, 5-(3-{1-[4-amino-3-(1-methyl-1H-pyrazol-4-yl)-1H-pyrazolo[3,4-d]pyrimidin-1-yl]ethyl}-5-chloro-2-ethoxy-6-methylphenyl)-N,N-dimethylpyridine-2-carboxamide bis(trifluoroacetate)], the IC50 is reported as no more than 10 nM. For CCOc1c(C(C)n2nc(-c3cc[nH]n3)c3c(N)ncnc32)cc(Cl)c(C)c1-c1ccc(C(=O)N(C)C)nc1 (racemic) [Example 51, 5-(3-{1-[4-amino-3-(1H-pyrazol-3-yl)-1H-pyrazolo[3,4-d]pyrimidin-1-yl]ethyl}-5-chloro-2-ethoxy-6-methylphenyl)-N,N-dimethylpyridine-2-carboxamide bis(trifluoroacetate)], the IC50 was no more than 10 nM. CCOc1c(C(C)n2nc(C3CC3)c3c(N)ncnc32)cc(Cl)c(C)c1-c1ccc(C(=O)N(C)C)nc1 (racemic) [Example 53, 5-{3-[1-(4-amino-3-cyclopropyl-1H-pyrazolo[3,4-d]pyrimidin-1-yl)ethyl]-5-chloro-2-ethoxy-6-methylphenyl}-N,N-dimethylpyridine-2-carboxamide bis(trifluoroacetate)] was tested, and the IC50 was no more than 10 nM. CCOc1c(C(C)n2nc(C#N)c3c(N)ncnc32)cc(Cl)c(C)c1-c1ccc(C(=O)N(C)C)nc1 (racemic) [Example 54, 5-{3-[1-(4-amino-3-cyano-1H-pyrazolo[3,4-d]pyrimidin-1-yl)ethyl]-5-chloro-2-ethoxy-6-methylphenyl}-N,N-dimethylpyridine-2-carboxamide] was tested, and the IC50 was 10 to 50 nM.
